In US11000033B2, “Ketone or oxime compound, and herbicide” (NISSAN CHEMICAL CORPORATION, priority 2014, dated 2021):

How the values were obtained:
Assay type in all cases: in vivo
[1] = tested on: Echinochloa oryzacola Vasing.; assay: Test Example 1: herbicidal activity, application before weed generation in submerged conditions (symbol A); details: application herbicide amount 320 g/ha
Method in brief: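 Ratings (5: ≥90%, near complete withering; 4: 70–<90%; 3: 40–<70%; 2: 20–<40%; 1: 5–<20%; 0: ≤5%) were assigned 3 weeks after the diluted emulsion was applied to the water surface of freshly sown, submerged pots.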

transplanted rice plant = assay: Test Example 1: effect on crop, application before weed generation in submerged conditions (symbol a); details: application herbicide amount 320 g/ha
Method in brief: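 Alluvial soil pots flooded to 4 cm water, sown with Echinochloa oryzacola, Scirpus juncoides and Monochoria vaginalis, then transplanted with 2.5 leaf stage rice seedlings; pre-emergence application. Greenhouse 25° C. to 30° C.; scored 0–5 by herbicidal ratio 3 weeks after application.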

Monochoria vaginalis = assay: Test Example 2: herbicidal activity, application during weed generation in submerged conditions (symbol C); details: Table 23; application herbicide amount 320 g/ha; grade 0-5 by criteria of Test Example 1
Method in brief: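 Compound was applied as a water-diluted emulsion into the standing water of flooded pots (4 cm) once co-sown weeds reached one to two leaves. Greenhouse temperature was 25° C. to 30° C., soil was alluvial, and each species was rated visually after 3 weeks.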

Digitaria ciliaris = assay: Test Example 4: herbicidal effect by soil treatment (symbol F); details: application herbicide amount 320 g/ha
Method in brief: (§1)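 Seeds were sown in sterilized diluvial soil, covered with about 1.5 cm of soil, and the soil surface was sprayed with a water-diluted emulsion of the compound at a predetermined rate. Plants grew in a greenhouse at 25° C. to 30° C.; effects were scored visually 3 weeks after application.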

[2] = tested on: Echinochloa crus-galli var. crus-galli; assay: Test Example 4: herbicidal effect by soil treatment (symbol H); details: application herbicide amount 320 g/ha
Method in brief: as §1

Avena fatua = assay: Test Example 4: herbicidal effect by soil treatment (symbol I); details: application herbicide amount 320 g/ha
Method in brief: as §1

Lolium multiflorum Lam. [3] = assay: Test Example 4: herbicidal effect by soil treatment (symbol K); details: application herbicide amount 320 g/ha
Method in brief: as §1

Apera spica-venti [4] = assay: Test Example 4: herbicidal effect by soil treatment (symbol L); details: application herbicide amount 320 g/ha
Method in brief: as §1

soybean = assay: Test Example 4: effect on crop by soil treatment (symbol d); details: application herbicide amount 320 g/ha
Method in brief: (§2)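 Seeds were sown in spots on sterilized diluvial soil in a plastic box and covered with about 1.5 cm of soil. Plants were then grown in a greenhouse at 25° C. to 30° C.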

rice = assay: Test Example 4: effect on crop by soil treatment (symbol b); details: application herbicide amount 320 g/ha
Method in brief: as §2

rapeseed = assay: Test Example 4: effect on crop by soil treatment (symbol g); details: application herbicide amount 320 g/ha
Method in brief: as §2

[5] = tested on: Echinochloa crus-galli var. crus-galli; assay: Test Example 5: herbicidal effect by foliage application, plastic box (symbol H); details: 320 g/ha, 3 weeks after application
Method in brief: (§3)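 Visual herbicidal score, taken three weeks post-application, of seedlings sprayed on the foliage with water-diluted emulsion at a predetermined amount; plants were 14 days old, greenhouse-raised at 25° C. to 30° C.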

Lolium multiflorum Lam. [6] = assay: Test Example 5: herbicidal effect by foliage application, plastic box (symbol K); details: 320 g/ha, 3 weeks after application
Method in brief: as §3

Apera spica-venti [7] = assay: Test Example 5: herbicidal effect by foliage application, plastic box (symbol L); details: 320 g/ha, 3 weeks after application
Method in brief: as §3

Stellaria media [8] = assay: Test Example 4: herbicidal effect by soil treatment (symbol P); details: application herbicide amount 320 g/ha
Method in brief: as §1

Stellaria media [9] = assay: Test Example 5: herbicidal effect by foliage application, plastic box (symbol P); details: 320 g/ha, 3 weeks after application
Method in brief: as §3

Compound	Herbicidal effect grade, A: Echinochloa oryzacola Vasing. [1]	Effect grade on crop, a: transplanted rice plant (transplanted rice plant)	Herbicidal effect grade, C: Monochoria vaginalis (Monochoria vaginalis)	F (Digitaria ciliaris) herbicidal effect grade (Digitaria ciliaris)	H (Echinochloa crus-galli var. crus-galli) herbicidal effect grade [2]	I (Avena fatua) herbicidal effect grade (Avena fatua)	K (Lolium multiflorum Lam.) herbicidal effect grade (Lolium multiflorum Lam. [3])	L (Apera spica-venti) herbicidal effect grade (Apera spica-venti [4])	d (soybean) effect on crop grade (soybean)	b (directly sowed rice plant) effect on crop grade (rice)	g (rapeseed) effect on crop grade (rapeseed)	H: Echinochloa crus-galli var. crus-galli, herbicidal effect grade [5]	K: Lolium multiflorum Lam., herbicidal effect grade (Lolium multiflorum Lam. [6])	L: Apera spica-venti, herbicidal effect grade (Apera spica-venti [7])	also measured
CON=C(C)CC1CC(OCCSC)=C(c2c(C)cc(C)cc2C)C1=O (stereo not shown) [1-011]	0 (Herbicidal ratio of 5% or lower (almost no effect))	0 (Herbicidal ratio of 5% or lower (almost no effect))	0 (Herbicidal ratio of 5% or lower (almost no effect))	0 (Herbicidal ratio of 5% or lower (almost no effect))	0 (Herbicidal ratio of 5% or lower (almost no effect))	0 (Herbicidal ratio of 5% or lower (almost no effect))	0 (Herbicidal ratio of 5% or lower (almost no effect))	0 (Herbicidal ratio of 5% or lower (almost no effect))	0 (Herbicidal ratio of 5% or lower (almost no effect))	0 (Herbicidal ratio of 5% or lower (almost no effect))	0 (Herbicidal ratio of 5% or lower (almost no effect))	0 (Herbicidal ratio of 5% or lower (almost no effect))	5 (Herbicidal ratio of 90% or more (almost completely withered))	5 (Herbicidal ratio of 90% or more (almost completely withered))	–
CCC(CCC1CC(O)=C(c2c(C)cc(C)cc2C)C1=O)=NOC (mixture of isomers) [4-001]	0 (Herbicidal ratio of 5% or lower (almost no effect))	0 (Herbicidal ratio of 5% or lower (almost no effect))	0 (Herbicidal ratio of 5% or lower (almost no effect))	–	–	–	–	–	–	–	–	2 (Herbicidal ratio of 20% or higher and lower than 40%)	5 (Herbicidal ratio of 90% or more (almost completely withered))	2 (Herbicidal ratio of 20% or higher and lower than 40%)	F: Digitaria ciliaris, herbicidal effect grade (Digitaria ciliaris): 2 (Herbicidal ratio of 20% or higher and lower than 40%); H: Echinochloa crus-galli var. crus-galli, herbicidal effect grade [2]: 0 (Herbicidal ratio of 5% or lower (almost no effect)); I: Avena fatua, herbicidal effect grade (Avena fatua): 0 (Herbicidal ratio of 5% or lower (almost no effect)); K: Lolium multiflorum Lam., herbicidal effect grade (Lolium multiflorum Lam. [3]): 5 (Herbicidal ratio of 90% or more (almost completely withered)); L: Apera spica-venti, herbicidal effect grade (Apera spica-venti [4]): 5 (Herbicidal ratio of 90% or more (almost completely withered)); d: soybean, effect on crop grade (soybean): 0 (Herbicidal ratio of 5% or lower (almost no effect)); b: directly sowed rice plant, effect on crop grade (rice): 5 (Herbicidal ratio of 90% or more (almost completely withered)); g: rapeseed, effect on crop grade (rapeseed): 1 (Herbicidal ratio of 5% or higher and lower than 20%)
CON=C(C)CC1CC(OCC(=O)OC)=C(c2c(C)cc(C)cc2C)C1=O (stereo not shown) [1-012]	0 (Herbicidal ratio of 5% or lower (almost no effect))	0 (Herbicidal ratio of 5% or lower (almost no effect))	0 (Herbicidal ratio of 5% or lower (almost no effect))	0 (Herbicidal ratio of 5% or lower (almost no effect))	0 (Herbicidal ratio of 5% or lower (almost no effect))	0 (Herbicidal ratio of 5% or lower (almost no effect))	0 (Herbicidal ratio of 5% or lower (almost no effect))	0 (Herbicidal ratio of 5% or lower (almost no effect))	0 (Herbicidal ratio of 5% or lower (almost no effect))	0 (Herbicidal ratio of 5% or lower (almost no effect))	0 (Herbicidal ratio of 5% or lower (almost no effect))	0 (Herbicidal ratio of 5% or lower (almost no effect))	0 (Herbicidal ratio of 5% or lower (almost no effect))	0 (Herbicidal ratio of 5% or lower (almost no effect))	–
CON=C(C)CC1CC(OC(=O)OC)=C(c2c(C)cc(C)cc2C)C1=O (stereo not shown) [1-014]	5 (Herbicidal ratio of 90% or more (almost completely withered))	5 (Herbicidal ratio of 90% or more (almost completely withered))	3 (Herbicidal ratio of 40% or higher and lower than 70%)	5 (Herbicidal ratio of 90% or more (almost completely withered))	5 (Herbicidal ratio of 90% or more (almost completely withered))	5 (Herbicidal ratio of 90% or more (almost completely withered))	5 (Herbicidal ratio of 90% or more (almost completely withered))	5 (Herbicidal ratio of 90% or more (almost completely withered))	4 (Herbicidal ratio of 70% or higher and lower than 90%)	4 (Herbicidal ratio of 70% or higher and lower than 90%)	–	5 (Herbicidal ratio of 90% or more (almost completely withered))	5 (Herbicidal ratio of 90% or more (almost completely withered))	5 (Herbicidal ratio of 90% or more (almost completely withered))	–
CON=C(C)CC1CC(OCC#N)=C(c2c(C)cc(C)cc2C)C1=O (stereo not shown) [1-013]	0 (Herbicidal ratio of 5% or lower (almost no effect))	0 (Herbicidal ratio of 5% or lower (almost no effect))	0 (Herbicidal ratio of 5% or lower (almost no effect))	0 (Herbicidal ratio of 5% or lower (almost no effect))	0 (Herbicidal ratio of 5% or lower (almost no effect))	0 (Herbicidal ratio of 5% or lower (almost no effect))	0 (Herbicidal ratio of 5% or lower (almost no effect))	–	0 (Herbicidal ratio of 5% or lower (almost no effect))	0 (Herbicidal ratio of 5% or lower (almost no effect))	0 (Herbicidal ratio of 5% or lower (almost no effect))	0 (Herbicidal ratio of 5% or lower (almost no effect))	5 (Herbicidal ratio of 90% or more (almost completely withered))	4 (Herbicidal ratio of 70% or higher and lower than 90%)	P (Stellaria media) herbicidal effect grade (Stellaria media [8]): 0 (Herbicidal ratio of 5% or lower (almost no effect)); P: Stellaria media, herbicidal effect grade (Stellaria media [9]): 0 (Herbicidal ratio of 5% or lower (almost no effect))
